Key:
Type in all cases: binding
[1] = biological target: T1, GDP-loaded K-Ras (1-169) C51S, C80L, C118S (Homo sapiens, UniProt P01116, C118S/C51S/C80L); assay: K-Ras WT (GDP) cross-linking assay (conjugate formation, TOF mass spectrometry); design: key: 0: No observed x-linking; +: 0 < x ≤ 20; ++: 20 < x ≤ 40; +++: 40 < x ≤ 100; details: Table 4; percent covalently modified K-Ras by MS; room temperature; typical compound conc. 2, 10, 25 μM, endpoints 1 and 24 h
T1 construct: GDP-loaded K-Ras (1-169) C51S, C80L, C118S
Procedure, shortened: (§1)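 5 μM protein (final, from 50 μM) in HEPES/NaCl/MgCl2 buffer pH 7.4 with compound typically at 2, 10 and 25 μM, room temperature, 1 and 24 h endpoints; formic acid quench. Intact-protein LC–TOF MS; percent modification is covalent adduct peak height over total K-Ras peak height.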

[2] = biological target: T2, GDP-loaded K-Ras (1-169) G12D, C51S, C80L, C118S (Homo sapiens, UniProt P01116, C118S/C51S/C80L/G12D); assay: K-Ras G12D(GDP) cross-linking assay (conjugate formation, TOF mass spectrometry); design: key: 0: No observed x-linking; +: 0 < x ≤ 20; ++: 20 < x ≤ 40; +++: 40 < x ≤ 100; details: Table 4; percent covalently modified K-Ras by MS; room temperature; typical compound conc. 2, 10, 25 μM, endpoints 1 and 24 h
T2 construct: GDP-loaded K-Ras (1-169) G12D, C51S, C80L, C118S
Procedure, shortened: as §1

K-Ras G12S = K-Ras G12S (Homo sapiens, UniProt P01116, G12S); assay: K-Ras G12S cross-linking assay (comparable procedure, conjugate formation, TOF mass spectrometry); design: key: 0: No observed x-linking; details: Table 4, percent covalently modified K-Ras by MS
Method: Protocol: K-Ras G12D(GDP) Cross-Linking Assay
Note: while the following protocol outlines the procedure for K-Ras G12D(GDP), a person of skill in the art may substitute other Ras proteins, and may also substitute a non-hydrolyzable GTP analog for GDP to study GTP bound Ras protein.
GDP-loaded K-Ras (1-169) G12D, C51S, C80L, C118S and GDP-loaded K-Ras (1-169) C51S, C80L, C118S were adjusted to 50 μM in K-Ras assay buffer (12.5 mM HEPES, 75 mM NaCl and 1 mM MgCl2 at pH 7.4). A 5 μL aliquot of each protein solution was added to each well of a 96-well microplate containing 40 μL of assay buffer. Initial compound stocks were prepared in DMSO at 100 times their final assay concentration. Compounds were then diluted 10-fold into K-Ras assay buffer to 10 times their final concentration. A 5 μL aliquot of each diluted compound solution was added to each protein solution in the 96-well microplate to initiate the reaction, which then proceeded at room temperature. Typical final compound concentrations were 2, 10, and 25 μM. At each time point, the reactions were analyzed immediately or quenched with 5 μL of a 5% formic acid solution and kept at 4° C. until analysis. Typical assay endpoints were 1 and 24 h.
Data collection took place on an Agilent 6230 TOF Mass Spectrometer. Complete reactions were injected onto a C4 reverse-phase column to separate protein from buffer components prior to entering the mass spectrometer. The proteins were eluted from the column by increasing acetonitrile fraction in the mobile phase and fed directly into the mass analyzer. Initial analysis of raw data took place in Agilent MassHunter BioConfirm software and consisted of deconvolution of multiple protein charge states with the maximum entropy algorithm, with a mass step of 1 Da. The heights of all deconvoluted protein masses were exported for further data analysis. The percent modification of each protein was then determined by calculating the peak height of the covalently modified K-Ras species as a percentage of the sum total of K-Ras protein peak height.

Row | Structure (SMILES) | WT x-linking (%) [1] | G12D x-linking (%) [2] | G12S x-linking (%) (K-Ras G12S)
1 | COc1ccc(CN=C=NCCN(C)c2nc(OC[C@@H]3CCCN3C)nc3c2CCN(c2cccc4cccc(C)c24)C3)cc1 [Example 29, N-(2-((((4-methoxybenzyl)imino)methylene)amino)ethyl)-N-methyl-7-(8-methylnaphthalen-1-yl)-2-(((S)-1-methylpyrrolidin-2-yl)methoxy)-5,6,7,8-tetrahydropyrido[3,4-d]pyrimidin-4-amine] | ++ (20 < x ≤ 100) | +++ (40 < x ≤ 100) | ++ (10 < x ≤ 100)
2 | CCCN=C=NCCCN(C)c1nc(OC[C@@H]2CCCN2C)nc2c1CCN(c1cccc3cccc(C)c13)C2 [Example 30, N-methyl-7-(8-methylnaphthalen-1-yl)-2-(((S)-1-methylpyrrolidin-2-yl)methoxy)-N-(3-(((propylimino)methylene)amino)propyl)-5,6,7,8-tetrahydropyrido[3,4-d]pyrimidin-4-amine] | ++ (20 < x ≤ 100) | +++ (40 < x ≤ 100) | ++ (10 < x ≤ 100)
3 | Cc1cccc2cccc(N3CCc4c(nc(OC[C@@H]5CCCN5C)nc4N(C)CCCN=C=NCc4ccccc4)C3)c12 [Example 31, N-(3-(((benzylimino)methylene)amino)propyl)-N-methyl-7-(8-methylnaphthalen-1-yl)-2-(((S)-1-methylpyrrolidin-2-yl)methoxy)-5,6,7,8-tetrahydropyrido[3,4-d]pyrimidin-4-amine] | ++ (20 < x ≤ 100) | +++ (40 < x ≤ 100) | ++ (10 < x ≤ 100)
4 | Cc1cccc2cccc(N3CCc4c(nc(OC[C@@H]5CCCN5C)nc4N(C)CCCN=C=NCc4ccc(Cl)cc4)C3)c12 [Example 32, N-(3-((((4-chlorobenzyl)imino)methylene)amino)propyl)-N-methyl-7-(8-methylnaphthalen-1-yl)-2-(((S)-1-methylpyrrolidin-2-yl)methoxy)-5,6,7,8-tetrahydropyrido[3,4-d]pyrimidin-4-amine] | + (0 < x ≤ 20) | + (0 < x ≤ 20) | + (0 < x ≤ 10)
5 | COc1ccc(CN=C=NCCCN(C)c2nc(OC[C@@H]3CCCN3C)nc3c2CCN(c2cccc4cccc(C)c24)C3)cc1 [Example 33, N-(3-((((4-methoxybenzyl)imino)methylene)amino)propyl)-N-methyl-7-(8-methylnaphthalen-1-yl)-2-(((S)-1-methylpyrrolidin-2-yl)methoxy)-5,6,7,8-tetrahydropyrido[3,4-d]pyrimidin-4-amine] | ++ (20 < x ≤ 100) | +++ (40 < x ≤ 100) | ++ (10 < x ≤ 100)
6 | Cc1cccc2cccc(N3CCc4c(nc(OC[C@@H]5CCCN5C)nc4N4CCN(C(=O)NCCCl)[C@@H](CC#N)C4)C3)c12 [Example 34, (S)—N-(2-chloroethyl)-2-(cyanomethyl)-4-(7-(8-methylnaphthalen-1-yl)-2-(((S)-1-methylpyrrolidin-2-yl)methoxy)-5,6,7,8-tetrahydropyrido[3,4-d]pyrimidin-4-yl)piperazine-1-carboxamide] | + (0 < x ≤ 20) | + (0 < x ≤ 20) | + (0 < x ≤ 10)
7 | Cc1cccc2cccc(N3CCc4c(nc(OC[C@@H]5CCCN5C)nc4NCCNC(=O)NCCCl)C3)c12 [Example 36, (S)-1-(2-chloroethyl)-3-(2-((7-(8-methylnaphthalen-1-yl)-2-((1-methylpyrrolidin-2-yl)methoxy)-5,6,7,8-tetrahydropyrido[3,4-d]pyrimidin-4-yl)amino)ethyl)urea] | + (0 < x ≤ 20) | + (0 < x ≤ 20) | + (0 < x ≤ 10)
8 | Cc1cccc2cccc(N3CCc4c(nc(OC[C@@H]5CCCN5C)nc4NCCN(C)C(=O)NCCCl)C3)c12 [Example 37, (S)-3-(2-chloroethyl)-1-methyl-1-(2-((7-(8-methylnaphthalen-1-yl)-2-((1-methylpyrrolidin-2-yl)methoxy)-5,6,7,8-tetrahydropyrido[3,4-d]pyrimidin-4-yl)amino)ethyl)urea] | 0 | 0 | 0
9 | Cc1cccc2cccc(N3CCc4c(nc(OC[C@@H]5CCCN5C)nc4N4CCN(C5=NCCO5)[C@@H](CC#N)C4)C3)c12 [Example 38, 2-((S)-1-(4,5-dihydrooxazol-2-yl)-4-(7-(8-methylnaphthalen-1-yl)-2-(((S)-1-methylpyrrolidin-2-yl)methoxy)-5,6,7,8-tetrahydropyrido[3,4-d]pyrimidin-4-yl)piperazin-2-yl)acetonitrile] | 0 | 0 | 0
10 | Cc1cccc2cccc(N3CCc4c(nc(OC[C@@H]5CCCN5C)nc4N4CCN(C5=NCCO5)CC4)C3)c12 [Example 39] | 0 | 0 | 0
11 | Cc1cccc2cccc(N3CCc4c(nc(OC[C@@H]5CCCN5C)nc4NCCNC4=NCCO4)C3)c12 [Example 40, (S)—N^1-(4,5-dihydrooxazol-2-yl)-N^2-(7-(8-methylnaphthalen-1-yl)-2-((1-methylpyrrolidin-2-yl)methoxy)-5,6,7,8-tetrahydropyrido[3,4-d]pyrimidin-4-yl)ethane-1,2-diamine] | + (0 < x ≤ 20) | + (0 < x ≤ 20) | + (0 < x ≤ 10)
12 | Cc1cccc2cccc(N3CCc4c(nc(OC[C@@H]5CCCN5C)nc4NCCN(C)C4=NCCO4)C3)c12 [Example 41, (S)—N^1-(4,5-dihydrooxazol-2-yl)-N^1-methyl-N^2-(7-(8-methylnaphthalen-1-yl)-2-((1-methylpyrrolidin-2-yl)methoxy)-5,6,7,8-tetrahydropyrido[3,4-d]pyrimidin-4-yl)ethane-1,2-diamine] | 0 | 0 | 0
13 | Cc1cccc2cccc(N3CCc4c(nc(OC[C@@H]5CCCN5C)nc4N4CCC(N(C)C(=O)C5CN5)CC4)C3)c12 (stereo partly drawn) [Example 42, N-methyl-(1-(7-(8-methylnaphthalen-1-yl)-2-(((S)-1-methylpyrrolidin-2-yl)methoxy)-5,6,7,8-tetrahydropyrido[3,4-d]pyrimidin-4-yl)piperidin-4-yl)aziridine-2-carboxamide] | + (0 < x ≤ 20) | + (0 < x ≤ 20) | + (0 < x ≤ 10)
14 | CC(=O)N1CC1C(=O)N(C)C1CCN(c2nc(OC[C@@H]3CCCN3C)nc3c2CCN(c2cccc4cccc(C)c24)C3)CC1 (stereo partly drawn) [Example 43, 1-acetyl-N-methyl-N-(1-(7-(8-methylnaphthalen-1-yl)-2-(((S)-1-methylpyrrolidin-2-yl)methoxy)-5,6,7,8-tetrahydropyrido[3,4-d]pyrimidin-4-yl)piperidin-4-yl)aziridine-2-carboxamide] | + (0 < x ≤ 20) | + (0 < x ≤ 20) | + (0 < x ≤ 10)
15 | Cc1cccc2cccc(N3CCc4c(nc(OC[C@@H]5CCCN5C)nc4N4CCC(N(C)C(=O)C5CN5S(C)(=O)=O)CC4)C3)c12 (stereo partly drawn) [Example 44, N-methyl-(1-(7-(8-methylnaphthalen-1-yl)-2-(((S)-1-methylpyrrolidin-2-yl)methoxy)-5,6,7,8-tetrahydropyrido[3,4-d]pyrimidin-4-yl)piperidin-4-yl)-1-(methylsulfonyl)aziridine-2-carboxamide] | + (0 < x ≤ 20) | + (0 < x ≤ 20) | + (0 < x ≤ 10)
